This passage reports IC50 results from patent US12264134B2 (Merck Sharp & Dohme LLC, priority 2018, dated 2025).

As a reminder, the IC50 is the point on the concentration scale where inhibition reaches its midpoint.

In the experiment the target is IDO1 (Homo sapiens, UniProt P14902). Nature of the experiment: IDO1 Cellular Assay in HeLa Cells Stimulated with IFNγ. The class given is cell-based. Conditions: read-out: HeLa Cell Potency, IC50.
Sequence of IDO1 (P14902 whole entry): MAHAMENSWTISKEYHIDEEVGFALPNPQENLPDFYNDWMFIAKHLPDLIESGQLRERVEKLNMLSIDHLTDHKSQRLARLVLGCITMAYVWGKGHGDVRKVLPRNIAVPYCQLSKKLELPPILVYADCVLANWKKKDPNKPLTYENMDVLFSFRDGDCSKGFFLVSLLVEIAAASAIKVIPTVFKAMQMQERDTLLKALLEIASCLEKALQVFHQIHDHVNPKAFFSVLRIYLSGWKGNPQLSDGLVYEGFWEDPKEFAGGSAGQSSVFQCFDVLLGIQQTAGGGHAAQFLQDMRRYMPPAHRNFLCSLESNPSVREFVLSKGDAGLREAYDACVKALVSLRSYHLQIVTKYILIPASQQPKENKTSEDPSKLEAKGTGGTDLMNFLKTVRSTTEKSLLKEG
With `C[C@@H]1CN(C(=O)c2nn(CC(=O)N3CCN(c4cccc5c4cnn5C)CC3)c3c2CCC3)C[C@H](C)O1` [Example 79, 2-{3-[(2R,6S)-2,6-dimethylmorpholine-4-carbonyl]-5,6-dihydrocyclopenta[c]pyrazol-1(4H)-yl}-1-[4-(1-methyl-1H-indazol-4-yl)piperazin-1-yl]ethan-1-one], the half-inhibitory concentration (IC50) was found to be 0.0831 µM.

Regarding `C[C@@H]1CN(C(=O)c2nn(CC(=O)N3CCN(c4cccc5c4CCC5)CC3)c3c2CCC3)C[C@H](C)O1` [Example 80, 1-[4-(2,3-dihydro-1H-inden-4-yl)piperazin-1-yl]-2-{3-[(2R,6S)-2,6-dimethylmorpholine-4-carbonyl]-5,6-dihydrocyclopenta[c]pyrazol-1(4H)-yl}ethan-1-one], the IC50 was determined as 0.00668 µM. To `Cc1cccc(N2CCN(C(=O)Cn3nc(C(=O)N4CCC5(CC4)CN(C)C(=O)O5)c4c3CCC4)CC2)c1C` [Example 81, 8-(1-(2-(4-(2,3-dimethylphenyl)piperazin-1-yl)-2-oxoethyl)-1,4,5,6-tetrahydrocyclopenta[c]pyrazole-3-carbonyl)-3-methyl-1-oxa-3,8-diazaspiro[4.5]decan-2-one] belongs 0.0058 µM; to `Cc1cccc(N2CCN(C(=O)Cn3nc(C(=O)N4CCC(C)(O)CC4)c4c3CCC4)CC2)c1C` [Example 82, 1-[4-(2,3-dimethylphenyl)piperazin-1-yl]-2-[3-(4-hydroxy-4-methylpiperidine-1-carbonyl)-5,6-dihydrocyclopenta[c]pyrazol-1(4H)-yl]ethan-1-one], 0.00275 µM; to `Cc1cccc(N2CCN(C(=O)Cn3nc(C(=O)N4CCC(=O)N(C)CC4)c4c3CCC4)CC2)c1C` [Example 84, 1-(1-{2-[4-(2,3-dimethylphenyl)piperazin-1-yl]-2-oxoethyl}-1,4,5,6-tetrahydrocyclopenta[c]pyrazole-3-carbonyl)-4-methyl-1,4-diazepan-5-one], 0.0156 µM. For `Cc1cccc(N2CCN(C(=O)Cn3nc(C(=O)N4CCN(C(=O)CO)CC4)c4c3CCC4)CC2)c1C` [Example 85, 1-[4-(2,3-dimethylphenyl)piperazin-1-yl]-2-{3-[4-(hydroxyacetyl)piperazine-1-carbonyl]-5,6-dihydrocyclopenta[c]pyrazol-1(4H)-yl}ethan-1-one] the value was 0.0265 µM. On to `COC(=O)N1CCN(C(=O)c2nn(CC(=O)N3CCN(c4cccc(C)c4C)CC3)c3c2CCC3)CC1` [Example 86, methyl 4-(1-{2-[4-(2,3-dimethylphenyl)piperazin-1-yl]-2-oxoethyl]-1,4,5,6-tetrahydrocyclopenta[c]pyrazole-3-carbonyl)piperazine-1-carboxylate], for which the IC50 was determined as 0.00412 µM.

With `Cc1cccc(N2CCN(C(=O)Cn3nc(C(=O)N4CC5CC4CC5O)c4c3CCC4)CC2)c1C` (stereo not shown) [Example 96, 1-[4-(2,3-dimethylphenyl)piperazin-1-yl]-2-[3-(5-hydroxy-2-azabicyclo[2.2.1]heptane-2-carbonyl)-5,6-dihydrocyclopenta[c]pyrazol-1(4H)-yl]ethan-1-one], the concentration for half-maximal inhibition (IC50) worked out at 0.0132 µM. To `Cc1cccc(N2CCN(C(=O)Cn3nc(C(=O)N4CC[C@H](O)[C@H](F)C4)c4c3CCC4)CC2)c1C` [Example 97, 1-[4-(2,3-dimethylphenyl)piperazin-1-yl]-2-{3-[(3R,4S)-3-fluoro-4-hydroxypiperidine-1-carbonyl]-5,6-dihydrocyclopenta[c]pyrazol-1(4H)-yl}ethan-1-one] belongs 0.0171 µM; to `Cc1cccc(N2CCN(C(=O)Cn3nc(C(=O)N4CC[C@@H](O)[C@@H](F)C4)c4c3CCC4)CC2)c1C` [Example 98, 1-[4-(2,3-dimethylphenyl)piperazin-1-yl]-2-{3-[(3S,4R)-3-fluoro-4-hydroxypiperidine-1-carbonyl]-5,6-dihydrocyclopenta[c]pyrazol-1(4H)-yl}ethan-1-one], 0.0124 µM. Take `Cc1cccc(N2CCN(C(=O)Cn3nc(C(=O)N4CC[C@H](O)[C@H](C)C4)c4c3CCC4)CC2)c1C` [Example 99, 1-[4-(2,3-dimethylphenyl)piperazin-1-yl]-2-{3-[(3R,4S)-4-hydroxy-3-methylpiperidine-1-carbonyl]-5,6-dihydrocyclopenta[c]pyrazol-1(4H)-yl}ethan-1-one]: the IC50 amounted to 0.00319 µM. To `Cc1cccc(N2CCN(C(=O)Cn3nc(C(=O)N4C[C@H]5CC[C@H](O)[C@H]5C4)c4c3CCC4)CC2)c1C` [Example 100, 1-[4-(2,3-dimethylphenyl)piperazin-1-yl]-2-{3-[(3aR,4S,6aS)-4-hydroxyhexahydrocyclopenta[c]pyrrole-2(1H)-carbonyl]-5,6-dihydrocyclopenta[c]pyrazol-1(4H)-yl}ethan-1-one] belongs 0.0107 µM.

As for `Cc1cccc(N2CCN(C(=O)Cn3nc(C(=O)N4CCC(F)(CO)CC4)c4c3CCC4)CC2)c1C` [Example 102, 1-[4-(2,3-dimethylphenyl)piperazin-1-yl]-2-{3-[4-fluoro-4-(hydroxymethyl)piperidine-1-carbonyl]-5,6-dihydrocyclopenta[c]pyrazol-1(4H)-yl}ethan-1-one], the concentration for half-maximal inhibition (IC50) came to 0.00438 µM.

For the compound `Cc1cccc(N2CCN(C(=O)Cn3nc(C(=O)N4CCOC(CO)C4)c4c3CCC4)CC2)c1C` (stereo not shown) [Example 103, 1-[4-(2,3-dimethylphenyl)piperazin-1-yl]-2-{3-[2-(hydroxymethyl)morpholine-4-carbonyl]-5,6-dihydrocyclopenta[c]pyrazol-1(4H)-yl}ethan-1-one], the IC50 amounted to 0.0183 µM. To `Cc1cccc(N2CCN(C(=O)Cn3nc(C(=O)N4CC[C@@H](O)[C@@H](O)C4)c4c3CCC4)CC2)c1C` [Example 104, 2-{3-[(3S,4R)-3,4-dihydroxypiperidine-1-carbonyl]-5,6-dihydrocyclopenta[c]pyrazol-1(4H)-yl}-1-[4-(2,3-dimethylphenyl)piperazin-1-yl]ethan-1-one] belongs 0.0496 µM. For `Cc1cccc(N2CCN(C(=O)Cn3nc(C(=O)N4CC5CCC4CO5)c4c3CCC4)CC2)c1C` (stereo not shown) [Example 105, 1-[4-(2,3-dimethylphenyl)piperazin-1-yl]-2-[3-(2-oxa-5-azabicyclo[2.2.2]octane-5-carbonyl)-5,6-dihydrocyclopenta[c]pyrazol-1(4H)-yl]ethan-1-one], the half-maximal inhibitory concentration (IC50) amounted to 0.0345 µM. `Cc1cccc(N2CCN(C(=O)Cn3nc(C(=O)N4CCC5(CC4)CC5(F)F)c4c3CCC4)CC2)c1C` [Example 110, 2-[3-(1,1-difluoro-6-azaspiro[2.5]octane-6-carbonyl)-5,6-dihydrocyclopenta[c]pyrazol-1(4H)-yl]-1-[4-(2,3-dimethylphenyl)piperazin-1-yl]ethan-1-one]: the half-maximal inhibitory concentration (IC50) amounted to 0.00539 µM. For `Cc1cccc(N2CCN(C(=O)Cn3nc(C(=O)N4CCC(O)(c5ccccc5)CC4)c4c3CCC4)CC2)c1C` [Example 111, 1-[4-(2,3-dimethylphenyl)piperazin-1-yl]-2-[3-(4-hydroxy-4-phenylpiperidine-1-carbonyl)-5,6-dihydrocyclopenta[c]pyrazol-1(4H)-yl]ethan-1-one] the value was 0.0286 µM; for `Cc1cccc(N2CCN(C(=O)Cn3nc(C(=O)N4CCC(O)C5CCCCC54)c4c3CCC4)CC2)c1C` (stereo not shown) [Example 112, 1-[4-(2,3-dimethylphenyl)piperazin-1-yl]-2-[3-(4-hydroxyoctahydroquinoline-1(2H)-carbonyl)-5,6-dihydrocyclopenta[c]pyrazol-1(4H)-yl]ethan-1-one], 0.0036 µM.
